Test results reported in article PMC4076210, “Discovery of Novel AKT Inhibitors with Enhanced Anti-Tumor Effects in Combination with the MEK Inhibitor” (PLoS ONE, 2014).
Read-outs that look alike come from different tables or passages of the source.

Key:
[1] = target: T1, PrKX(h) (Homo sapiens, UniProt P51817); assay: Kinase panel; assay type: biochemical
T1 construct: purchased Millipore KinaseProfiler
T1 sequence (P51817 1-358): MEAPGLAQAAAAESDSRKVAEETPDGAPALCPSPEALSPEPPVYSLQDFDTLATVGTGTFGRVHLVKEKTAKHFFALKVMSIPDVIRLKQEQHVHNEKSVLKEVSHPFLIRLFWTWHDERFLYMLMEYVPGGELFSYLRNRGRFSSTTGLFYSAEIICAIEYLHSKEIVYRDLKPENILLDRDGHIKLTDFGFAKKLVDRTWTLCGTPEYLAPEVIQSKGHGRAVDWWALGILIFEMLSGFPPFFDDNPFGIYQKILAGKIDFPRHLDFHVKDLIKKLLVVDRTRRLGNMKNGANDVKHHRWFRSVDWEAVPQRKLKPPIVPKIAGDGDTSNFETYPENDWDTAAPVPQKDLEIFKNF

[2] = target: T2, MRCKβ(h) (Homo sapiens, UniProt Q9Y5S2); assay: Kinase panel; assay type: biochemical
T2 construct: purchased Millipore KinaseProfiler

[3] = target: T3, PKCθ(h) (Homo sapiens, UniProt Q04759); assay: Kinase panel; assay type: biochemical
T3 construct: purchased Millipore KinaseProfiler
T3 sequence (Q04759 whole entry): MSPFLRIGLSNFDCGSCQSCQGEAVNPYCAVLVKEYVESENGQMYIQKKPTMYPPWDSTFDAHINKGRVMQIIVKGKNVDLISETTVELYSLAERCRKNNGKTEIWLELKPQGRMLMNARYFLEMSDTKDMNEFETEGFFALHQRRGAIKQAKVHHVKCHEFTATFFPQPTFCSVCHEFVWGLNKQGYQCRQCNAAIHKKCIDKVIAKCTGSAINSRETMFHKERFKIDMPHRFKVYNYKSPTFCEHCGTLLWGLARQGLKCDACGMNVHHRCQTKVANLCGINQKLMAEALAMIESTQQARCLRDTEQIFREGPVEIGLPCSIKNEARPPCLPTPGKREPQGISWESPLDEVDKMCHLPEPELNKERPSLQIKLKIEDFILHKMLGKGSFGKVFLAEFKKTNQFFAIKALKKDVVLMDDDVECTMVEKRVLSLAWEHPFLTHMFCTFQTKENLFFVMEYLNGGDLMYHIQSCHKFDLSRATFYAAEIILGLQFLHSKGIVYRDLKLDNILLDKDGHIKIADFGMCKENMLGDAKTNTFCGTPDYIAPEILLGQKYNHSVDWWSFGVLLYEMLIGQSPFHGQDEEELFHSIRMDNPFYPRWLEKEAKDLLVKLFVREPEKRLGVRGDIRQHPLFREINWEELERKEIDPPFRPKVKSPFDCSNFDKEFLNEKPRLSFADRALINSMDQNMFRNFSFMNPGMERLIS

[4] = test system: pGSK-3β in LNCaP; assay: phospho-GSK3β ELISA; assay type: cell-based; conditions: Homo sapiens, 1 h, mean ± std dev
Method: (§1) ELISA plates were prepared by coating with anti-GSK3β antibody (R&D Systems), and blocked with 5% Milk/0.1% Tween-20. Cells were seeded at 25,000 cells/96-well overnight and treated with DMSO or various concentrations of drug for 1 h. Cells were lysed in 20 mM Tris-HCl (pH 8.0), 137 mM NaCl, 2 mM EDTA, 10% glycerol and 1% Triton X-100 and lysates transferred to ELISA plates and incubated overnight. The plates were washed and incubated with rabbit anti-phospho-GSK3β (Ser9) antibody (R&D Systems) for 1 h. After washing, plates were developed using HRP-linked anti-rabbit IgG, and 3,3′,5,5′-tetramethylbenzidine as substrate. Absorption was measured in a microplate spectrophotometer at 450 nm. The phospho-PRAS40 ELISA followed similar methodology as above with the exception of using a commercially available PRAS40 (pThr246) kit (Biosource) and following manufacturers' instructions for the ELISA analysis.

[5] = test system: pGSK-3β in BT474; assay: phospho-GSK3β ELISA; assay type: cell-based; conditions: Homo sapiens, BT-474; BT474, 1 h, mean ± std dev
Method: as §1

[6] = target: T4, cSRC(h) (Homo sapiens, UniProt P12931); assay: Kinase panel; assay type: biochemical
T4 construct: purchased Millipore KinaseProfiler

[7] = target: PKA (Homo sapiens, UniProt P17612); assay: Kinase IC50 assay; assay type: biochemical
[8] = target: T5, ROCK-I(h) (Homo sapiens, UniProt Q13464); assay: Kinase panel; assay type: biochemical
T5 construct: purchased Millipore KinaseProfiler
T5 sequence (Q13464 whole entry): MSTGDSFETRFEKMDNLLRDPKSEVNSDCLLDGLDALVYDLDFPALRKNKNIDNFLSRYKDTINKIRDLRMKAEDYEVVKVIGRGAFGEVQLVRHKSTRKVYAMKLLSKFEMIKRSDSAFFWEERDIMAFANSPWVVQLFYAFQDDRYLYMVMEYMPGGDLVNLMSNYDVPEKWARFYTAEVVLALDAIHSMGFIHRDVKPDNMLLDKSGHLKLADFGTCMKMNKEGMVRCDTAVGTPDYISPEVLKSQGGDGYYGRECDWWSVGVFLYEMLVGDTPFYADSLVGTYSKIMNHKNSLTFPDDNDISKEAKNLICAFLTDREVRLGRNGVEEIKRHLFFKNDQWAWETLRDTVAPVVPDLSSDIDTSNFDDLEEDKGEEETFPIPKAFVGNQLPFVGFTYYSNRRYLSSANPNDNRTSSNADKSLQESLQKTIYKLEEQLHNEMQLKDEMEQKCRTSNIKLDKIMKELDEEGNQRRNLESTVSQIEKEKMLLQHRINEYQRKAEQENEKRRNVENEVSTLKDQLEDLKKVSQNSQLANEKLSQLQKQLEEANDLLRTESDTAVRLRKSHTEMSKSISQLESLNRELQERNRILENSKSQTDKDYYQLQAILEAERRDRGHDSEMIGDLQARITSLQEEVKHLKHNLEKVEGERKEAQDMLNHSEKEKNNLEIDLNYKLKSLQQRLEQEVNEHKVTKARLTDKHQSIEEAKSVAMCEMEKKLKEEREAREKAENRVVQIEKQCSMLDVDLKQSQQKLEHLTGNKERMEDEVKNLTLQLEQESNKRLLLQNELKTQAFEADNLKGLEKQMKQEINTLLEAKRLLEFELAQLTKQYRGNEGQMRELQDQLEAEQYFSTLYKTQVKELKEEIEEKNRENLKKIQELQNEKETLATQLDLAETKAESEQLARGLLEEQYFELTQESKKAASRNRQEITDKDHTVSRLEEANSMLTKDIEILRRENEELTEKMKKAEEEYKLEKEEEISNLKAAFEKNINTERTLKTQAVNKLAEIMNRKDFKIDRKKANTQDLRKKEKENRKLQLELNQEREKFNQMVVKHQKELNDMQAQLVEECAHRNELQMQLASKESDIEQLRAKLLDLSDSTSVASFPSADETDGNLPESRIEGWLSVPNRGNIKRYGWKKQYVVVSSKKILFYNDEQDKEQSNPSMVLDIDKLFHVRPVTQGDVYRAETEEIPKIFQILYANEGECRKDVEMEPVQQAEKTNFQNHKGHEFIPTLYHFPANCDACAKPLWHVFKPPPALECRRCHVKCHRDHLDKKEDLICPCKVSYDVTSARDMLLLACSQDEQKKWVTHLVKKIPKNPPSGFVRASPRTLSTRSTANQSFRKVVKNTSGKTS

[9] = target: T6, FGFR2(N549H)(h) (Homo sapiens, UniProt P21802, N549H); assay: Kinase panel; assay type: biochemical
T6 construct: purchased Millipore KinaseProfiler

[10] = target: T7, PDGFRα(D842V)(h) (Homo sapiens, UniProt P16234, D842V); assay: Kinase panel; assay type: biochemical
T7 construct: purchased Millipore KinaseProfiler
T7 sequence (P16234 24-1089 D842V): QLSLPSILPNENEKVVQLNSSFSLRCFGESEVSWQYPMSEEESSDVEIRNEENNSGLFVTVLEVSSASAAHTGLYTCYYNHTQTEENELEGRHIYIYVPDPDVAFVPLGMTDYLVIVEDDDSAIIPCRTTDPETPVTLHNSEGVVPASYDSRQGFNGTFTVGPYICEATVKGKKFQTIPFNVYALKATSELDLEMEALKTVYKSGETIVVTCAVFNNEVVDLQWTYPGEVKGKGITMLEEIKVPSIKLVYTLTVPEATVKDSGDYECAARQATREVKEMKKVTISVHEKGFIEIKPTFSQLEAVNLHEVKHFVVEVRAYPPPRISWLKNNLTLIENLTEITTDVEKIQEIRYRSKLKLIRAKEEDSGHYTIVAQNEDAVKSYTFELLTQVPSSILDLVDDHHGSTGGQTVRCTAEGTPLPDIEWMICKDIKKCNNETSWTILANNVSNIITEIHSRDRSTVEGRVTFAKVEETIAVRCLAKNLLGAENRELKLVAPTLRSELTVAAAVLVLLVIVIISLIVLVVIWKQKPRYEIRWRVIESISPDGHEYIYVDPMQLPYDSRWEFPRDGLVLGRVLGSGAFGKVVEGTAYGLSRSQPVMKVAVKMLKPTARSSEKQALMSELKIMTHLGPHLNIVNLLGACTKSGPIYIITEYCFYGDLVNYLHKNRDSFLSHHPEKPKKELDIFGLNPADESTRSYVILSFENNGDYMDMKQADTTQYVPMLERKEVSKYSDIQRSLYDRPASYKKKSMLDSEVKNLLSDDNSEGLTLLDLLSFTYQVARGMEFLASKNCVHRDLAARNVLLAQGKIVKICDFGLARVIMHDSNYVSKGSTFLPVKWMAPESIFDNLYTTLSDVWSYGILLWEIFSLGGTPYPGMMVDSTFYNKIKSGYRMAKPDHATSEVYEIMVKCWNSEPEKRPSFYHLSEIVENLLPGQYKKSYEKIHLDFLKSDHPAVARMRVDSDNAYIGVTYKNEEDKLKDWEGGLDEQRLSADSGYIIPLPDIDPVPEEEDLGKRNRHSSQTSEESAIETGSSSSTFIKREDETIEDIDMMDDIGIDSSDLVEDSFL

[11] = target: T8, WNK2(h) (Homo sapiens, UniProt Q9Y3S1); assay: Kinase panel; assay type: biochemical
T8 construct: purchased Millipore KinaseProfiler

[12] = target: PKCε (Homo sapiens, UniProt Q02156); assay: Kinase IC50 assay; assay type: biochemical
[13] = target: T9, ROCK-II(r) (Rattus norvegicus, UniProt Q62868); assay: Kinase panel; assay type: biochemical
T9 construct: purchased Millipore KinaseProfiler
T9 sequence (Q62868 2-543 limits assumed): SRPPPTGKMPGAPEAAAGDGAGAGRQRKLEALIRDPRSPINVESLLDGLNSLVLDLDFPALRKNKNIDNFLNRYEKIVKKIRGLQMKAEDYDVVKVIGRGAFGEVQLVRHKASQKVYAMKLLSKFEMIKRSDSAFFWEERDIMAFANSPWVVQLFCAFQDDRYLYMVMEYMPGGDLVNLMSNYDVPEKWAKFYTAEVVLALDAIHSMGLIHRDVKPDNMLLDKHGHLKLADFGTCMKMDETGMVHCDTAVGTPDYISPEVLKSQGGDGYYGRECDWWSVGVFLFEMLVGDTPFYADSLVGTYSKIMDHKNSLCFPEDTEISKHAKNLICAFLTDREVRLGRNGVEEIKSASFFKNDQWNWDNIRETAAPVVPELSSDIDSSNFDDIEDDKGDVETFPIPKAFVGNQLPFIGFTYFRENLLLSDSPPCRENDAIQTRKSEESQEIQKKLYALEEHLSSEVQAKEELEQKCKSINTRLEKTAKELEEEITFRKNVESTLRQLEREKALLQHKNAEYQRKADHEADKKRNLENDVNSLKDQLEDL

[14] = target: T10, mTOR(h) (Homo sapiens, UniProt P42345); assay: Kinase panel; assay type: biochemical
T10 construct: purchased Millipore KinaseProfiler

[15] = target: T11, Rsk2(h) (Homo sapiens, UniProt P51812); assay: Kinase panel; assay type: biochemical
T11 construct: purchased Millipore KinaseProfiler
T11 sequence (P51812 whole entry): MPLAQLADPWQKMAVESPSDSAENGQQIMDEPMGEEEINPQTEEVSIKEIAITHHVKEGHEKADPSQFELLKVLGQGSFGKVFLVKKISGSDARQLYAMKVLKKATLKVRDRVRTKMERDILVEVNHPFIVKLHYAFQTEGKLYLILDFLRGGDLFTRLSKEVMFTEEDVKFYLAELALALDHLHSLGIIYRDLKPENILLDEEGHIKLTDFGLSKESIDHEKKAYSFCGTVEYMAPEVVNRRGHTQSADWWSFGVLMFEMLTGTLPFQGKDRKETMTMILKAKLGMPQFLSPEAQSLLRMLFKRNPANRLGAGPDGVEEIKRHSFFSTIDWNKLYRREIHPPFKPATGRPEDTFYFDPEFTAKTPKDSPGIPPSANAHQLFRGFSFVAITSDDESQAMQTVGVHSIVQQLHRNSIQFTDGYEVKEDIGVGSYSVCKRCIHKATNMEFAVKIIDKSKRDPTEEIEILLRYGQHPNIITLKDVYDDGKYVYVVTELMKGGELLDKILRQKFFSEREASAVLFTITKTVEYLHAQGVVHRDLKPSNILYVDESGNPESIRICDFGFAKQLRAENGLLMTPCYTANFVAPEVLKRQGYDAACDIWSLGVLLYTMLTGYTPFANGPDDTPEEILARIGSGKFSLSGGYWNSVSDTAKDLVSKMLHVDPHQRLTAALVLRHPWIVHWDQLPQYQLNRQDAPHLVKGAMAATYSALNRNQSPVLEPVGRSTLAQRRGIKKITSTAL

[16] = target: T12, Mer(h) (Homo sapiens, UniProt Q12866); assay: Kinase panel; assay type: biochemical
T12 construct: purchased Millipore KinaseProfiler
T12 sequence (Q12866 21-999): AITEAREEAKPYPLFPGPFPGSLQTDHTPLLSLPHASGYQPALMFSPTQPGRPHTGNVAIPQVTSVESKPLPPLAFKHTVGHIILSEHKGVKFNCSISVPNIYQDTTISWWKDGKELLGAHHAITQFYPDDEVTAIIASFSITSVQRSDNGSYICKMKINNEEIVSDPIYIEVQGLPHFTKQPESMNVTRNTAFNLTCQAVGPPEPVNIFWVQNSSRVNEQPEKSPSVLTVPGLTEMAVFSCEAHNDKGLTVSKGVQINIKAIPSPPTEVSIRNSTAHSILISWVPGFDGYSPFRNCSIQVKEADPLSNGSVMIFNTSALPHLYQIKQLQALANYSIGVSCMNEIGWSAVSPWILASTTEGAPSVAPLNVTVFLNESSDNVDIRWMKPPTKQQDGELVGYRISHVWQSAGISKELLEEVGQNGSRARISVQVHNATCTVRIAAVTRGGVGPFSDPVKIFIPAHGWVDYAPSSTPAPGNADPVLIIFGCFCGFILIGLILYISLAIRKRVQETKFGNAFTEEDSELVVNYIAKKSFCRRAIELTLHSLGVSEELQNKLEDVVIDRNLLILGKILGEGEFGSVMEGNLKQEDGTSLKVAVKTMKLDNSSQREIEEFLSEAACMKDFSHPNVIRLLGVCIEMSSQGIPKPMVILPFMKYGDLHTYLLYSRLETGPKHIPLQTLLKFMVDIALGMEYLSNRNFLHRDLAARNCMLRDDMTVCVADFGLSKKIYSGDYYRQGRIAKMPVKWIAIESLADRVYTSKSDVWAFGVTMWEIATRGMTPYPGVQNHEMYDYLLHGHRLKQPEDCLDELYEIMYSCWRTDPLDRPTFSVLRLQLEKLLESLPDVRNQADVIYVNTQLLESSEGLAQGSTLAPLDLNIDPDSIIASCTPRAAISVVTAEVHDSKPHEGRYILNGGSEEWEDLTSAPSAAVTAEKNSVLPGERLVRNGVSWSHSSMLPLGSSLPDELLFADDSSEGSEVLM

[17] = target: T13, JNK3(h) (Homo sapiens, UniProt P53779); assay: Kinase panel; assay type: biochemical
T13 construct: purchased Millipore KinaseProfiler
T13 sequence (P53779 whole entry): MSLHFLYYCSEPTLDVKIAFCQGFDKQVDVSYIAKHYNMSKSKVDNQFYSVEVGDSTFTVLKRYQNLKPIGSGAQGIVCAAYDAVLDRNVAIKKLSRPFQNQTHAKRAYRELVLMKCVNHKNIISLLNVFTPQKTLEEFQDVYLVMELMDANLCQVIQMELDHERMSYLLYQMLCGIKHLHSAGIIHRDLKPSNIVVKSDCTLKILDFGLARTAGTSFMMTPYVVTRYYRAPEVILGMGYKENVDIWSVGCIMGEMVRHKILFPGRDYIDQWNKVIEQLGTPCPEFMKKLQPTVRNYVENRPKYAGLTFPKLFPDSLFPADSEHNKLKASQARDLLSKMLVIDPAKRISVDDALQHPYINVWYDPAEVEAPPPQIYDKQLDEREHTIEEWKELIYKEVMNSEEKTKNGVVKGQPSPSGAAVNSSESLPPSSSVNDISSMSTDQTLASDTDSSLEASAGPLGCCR

Cn1ncc(Cl)c1-c1cc(C(=O)N[C@H](CN)Cc2cccc(F)c2)sc1Cl [GSK2110183]
inhibition at 0.5 µM [1]: 70% | inhibition at 10 µM [1]: 96% | inhibition at 0.5 µM [2]: -4% | inhibition at 10 µM [2]: 11% | inhibition at 0.5 µM [3]: 62% | inhibition at 10 µM [3]: 94% | IC50 [4]: 76 ± 16 nM | IC50 [5]: 316 ± 91 nM | inhibition at 0.5 µM [6]: -1% | inhibition at 10 µM [6]: 22% | IC50 [7]: 1.3 nM | inhibition at 0.5 µM [8]: 12% | inhibition at 10 µM [8]: 77% | inhibition at 0.5 µM [9]: -1% | inhibition at 10 µM [9]: -1% | inhibition at 0.5 µM [10]: -16% | inhibition at 10 µM [10]: -4% | inhibition at 0.5 µM [11]: 1% | inhibition at 10 µM [11]: 26% | IC50 [12]: > 1000 nM | inhibition at 0.5 µM [13]: 73% | inhibition at 10 µM [13]: 97% | inhibition at 0.5 µM [14]: 17% | inhibition at 10 µM [14]: -9% | inhibition at 0.5 µM [15]: 63% | inhibition at 10 µM [15]: 97% | inhibition at 0.5 µM [16]: 2% | inhibition at 10 µM [16]: 65% | inhibition at 0.5 µM [17]: -5% | inhibition at 10 µM [17]: 6%

Cn1ncc(Cl)c1-c1cc(C(=O)N[C@H](CN)Cc2ccc(F)c(F)c2)oc1Cl [GSK2141795]
inhibition at 0.5 µM ([1]; 0.5 µM, read-out: % Inhibition): 91% | inhibition at 10 µM ([1]; 10 µM, read-out: % Inhibition): 98% | inhibition at 0.5 µM ([2]; 0.5 µM, read-out: % Inhibition): -8% | inhibition at 10 µM ([2]; 10 µM, read-out: % Inhibition): 3% | inhibition at 0.5 µM ([3]; 0.5 µM, read-out: % Inhibition): 82% | inhibition at 10 µM ([3]; 10 µM, read-out: % Inhibition): 94% | IC50 [4]: 34 ± 5 nM | IC50 [5]: 143 ± 21 nM | inhibition at 0.5 µM ([6]; 0.5 µM, read-out: % Inhibition): -6% | inhibition at 10 µM ([6]; 10 µM, read-out: % Inhibition): 49% | IC50 [7]: 2 nM | inhibition at 0.5 µM ([8]; 0.5 µM, read-out: % Inhibition): 18% | inhibition at 10 µM ([8]; 10 µM, read-out: % Inhibition): 71% | inhibition at 0.5 µM ([9]; 0.5 µM, read-out: % Inhibition): -2% | inhibition at 10 µM ([9]; 10 µM, read-out: % Inhibition): -5% | inhibition at 0.5 µM ([10]; 0.5 µM, read-out: % Inhibition): -5% | inhibition at 10 µM ([10]; 10 µM, read-out: % Inhibition): 15% | inhibition at 0.5 µM ([11]; 0.5 µM, read-out: % Inhibition): -12% | inhibition at 10 µM ([11]; 10 µM, read-out: % Inhibition): 3% | IC50 [12]: > 1000 nM | inhibition at 0.5 µM ([13]; 0.5 µM, read-out: % Inhibition): 72% | inhibition at 10 µM ([13]; 10 µM, read-out: % Inhibition): 98% | inhibition at 0.5 µM ([14]; 0.5 µM, read-out: % Inhibition): -16% | inhibition at 10 µM ([14]; 10 µM, read-out: % Inhibition): -4% | inhibition at 0.5 µM ([15]; 0.5 µM, read-out: % Inhibition): 73% | inhibition at 10 µM ([15]; 10 µM, read-out: % Inhibition): 100% | inhibition at 0.5 µM ([16]; 0.5 µM, read-out: % Inhibition): 10% | inhibition at 10 µM ([16]; 10 µM, read-out: % Inhibition): 63% | inhibition at 0.5 µM ([17]; 0.5 µM, read-out: % Inhibition): -5% | inhibition at 10 µM ([17]; 10 µM, read-out: % Inhibition): 3%
